Experimental data as given in US20240059700A1, “NOVEL DIACYLGLYCERIDE O-ACYLTRANSFERASE 2 INHIBITORS” (Merck Sharp & Dohme LLC, priority 2020, published 2024).

The molecules below were run against human DGAT2 (hDGAT2) (Homo sapiens (Human), UniProt Q96PD7) (assay: DGAT2 Enzymatic Activity Assay). Details: membrane prep of Sf-9 insect cells expressing hDGAT2; 13C18-triolein product by LC/MS/MS.
Chain of human DGAT2 (hDGAT2) (Q96PD7 whole entry): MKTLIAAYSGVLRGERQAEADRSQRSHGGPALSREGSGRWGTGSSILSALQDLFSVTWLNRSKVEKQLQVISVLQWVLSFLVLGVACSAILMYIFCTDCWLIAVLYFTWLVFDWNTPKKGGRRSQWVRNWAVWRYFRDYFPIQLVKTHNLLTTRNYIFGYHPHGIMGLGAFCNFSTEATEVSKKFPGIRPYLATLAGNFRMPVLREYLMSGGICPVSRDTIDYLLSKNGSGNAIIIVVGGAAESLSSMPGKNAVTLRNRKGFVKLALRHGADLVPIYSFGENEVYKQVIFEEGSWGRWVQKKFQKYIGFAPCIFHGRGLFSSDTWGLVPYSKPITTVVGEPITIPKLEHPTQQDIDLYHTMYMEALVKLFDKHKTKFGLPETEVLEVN
Type: biochemical
Protocol: Sf-9 insect cells were maintained in Grace's insect cell culture medium with 10% heated-inactivated fetal bovine serum, 1% Pluronic F-68 and 0.14 μg/ml Kanamycine sulfate at 27° C. in a shaker incubator. After infection with untagged baculovirus expressing human DGAT2 (hDGAT2) at multiplicity of infection (MOI) 3 for 48 hours, cells were harvested. Cell pellets were suspended in buffer containing 10 mM Tris-HCl pH 7.5, 1 mM EDTA, 250 mM sucrose and Complete Protease Inhibitor Cocktail (Sigma Aldrich), and sonicated on ice. Cell debris were removed by centrifugation at 2000×g for 15 minutes. Membrane fractions were isolated by ultracentrifugation (100,000×g), resuspended in the same buffer, and frozen (−80° C.) for later use. The protein concentration was determined with the Pierce™ BCA Protein Assay Kit (Thermo Fisher Scientific). Expression of protein levels was analyzed by immunoblotting with rabbit anti-DGAT2 antibody (Abcam, ab102831) and donkey anti-rabbit IgG H&L Alexa Fluor® 647 (Abcam, ab150075) followed by detection using Typhoon FLA9000 (GE Healthcare).
LC/MS/MS analyses were performed using Thermal Fisher's LX4-TSQ Vantage system. This system consists of an Agilent binary high-performance liquid chromatography (HPLC) pumps and a TSQ Vantage triple quadrupole MS/MS instrument. For each sample, 2 μL samples from the top organic layer of in-plate liquid-liquid extraction were injected onto a Thermo Betabasic C4 column (2.1 mm×20 mm, 5 μm particle size). The samples were then eluted using the following conditions; mobile phase: Isopropanol: acetonitrile/10 mM ammonium formate=50/35/15 (v/v/v), flow rate: 0.8 mL/min, temperature: 25° C. Data was acquired in positive mode using a heated electrospray ionization (HESI) interface. The operational parameters for the TSQ Vantage MS/MS instrument were a spray voltage of 3000 V, capillary temperature of 280° C., vaporizer temperature 400° C., sheath gas 45 arbitrary unit, Aux gas 10 arbitrary units, S-lens 165 and collision gas 1.0 mTorr. […] (SRM) chromatograms of ^13C18-triolein (Q1: 920.8>Q3:621.3) and internal standard ^13C21-triolein (Q1: 923.8>Q3:617.3) were collected for 33 sec. The peak area was integrated by Xcalibur Quan software. The ratio between the ^13C18 triolein generated in the reaction and spiked in internal standard ^13C21-triolein was used to generate percentage inhibition and IC50 values. Compound percentage inhibition was calculated by the following formula: Inhibition %=1−[(compound response−low control)/(high control−low control)]×100%. Potent compounds were titrated and IC50 were calculated by 4 parameter sigmoidal curve fitting formula.
DGAT2 activity was determined by measuring the amount of enzymatic product ^13C18-triolein (^13C-1,2,3-Tri(cis-9-octadecenoyl)glycerol) using the membrane prep mentioned above. The assay was carried out in ABgene 384-well assay plates in a final volume of 25 μL at rt. The assay mixture contained the following: assay buffer (100 mM Tris·Cl, pH 7.0, 20 mM MgCl2, 5% ethanol), 25 μM of diolein, 5 μM of ^13C oleoyl-CoA and 8 ng/μL of DGAT2 membrane.
For `CC1(NC(=O)c2cnc3c(-c4cccc(OC(F)F)c4)nn(C4CC(O)C4)c3c2)CS(=O)(=O)C1` (stereo not drawn) [Example 88, 3-(3-(difluoromethoxy)phenyl)-1-(3-hydroxycyclobutyl)-N-(3-methyl-1,1-dioxidothietan-3-yl)-1H-pyrazolo[4,3-b]pyridine-6-carboxamide], the IC50 was 80 nM.
`Cn1nccc1-c1nn(-c2ccc(F)cc2)c2cc(C(=O)N[C@@]3(C)CCS(=O)(=O)C3)cnc12` [Example 2, (S)-1-(4-fluorophenyl)-N-(3-methyl-1,1-dioxidotetrahydrothiophen-3-yl)-3-(1-methyl-1H-pyrazol-5-yl)-1H-pyrazolo[4,3-b]pyridine-6-carboxamide] was tested, and the IC50 was 142 nM.
`CC1(NC(=O)c2cnc3c(-c4cccc(OC(F)F)c4)nn(-c4ncc(F)cn4)c3c2)CS(=O)(=O)C1` [Example 4, 3-(3-(difluoromethoxy)phenyl)-1-(5-fluoropyrimidin-2-yl)-N-(3-methyl-1,1-dioxidothietan-3-yl)-1H-pyrazolo[4,3-b]pyridine-6-carboxamide] was tested, and the IC50 was 17 nM.
In the case of `CC(C)Cn1nc(-c2cccc(OC(F)F)c2)c2ncc(C(=O)NC3(C)CS(=O)(=O)C3)cc21` [Example 28, 3-(3-(difluoromethoxy)phenyl)-1-isobutyl-N-(3-methyl-1,1-dioxidothietan-3-yl)-1H-pyrazolo[4,3-b]pyridine-6-carboxamide], the IC50 is reported as 29 nM.
With `CC(C)n1nc(-c2cc(OC3CCC3)ccc2F)c2ncc(C(=O)NC3(C)CS(=O)(=O)C3)cc21` [Example 109, 3-(5-cyclobutoxy-2-fluorophenyl)-1-isopropyl-N-(3-methyl-1,1-dioxidothietan-3-yl)-1H-pyrazolo[4,3-b]pyridine-6-carboxamide] the IC50 was 11 nM.
`CC(C)n1nc(-c2cccc(OC(F)F)c2)c2c(F)cc(C(=O)NC3(C)CS(=O)(=O)C3)cc21` [Example 33, 3-(3-(difluoromethoxy)phenyl)-4-fluoro-1-isopropyl-N-(3-methyl-1,1-dioxidothietan-3-yl)-1H-indazole-6-carboxamide] was tested, and the IC50 was 1 nM.
`CC(C)n1nc(-c2cccc(OC3CC3)c2)c2ncc(C(=O)NC3(C)CS(=O)(=O)C3)cc21` [Example 97, 3-[3-(cyclopropoxy)phenyl]-1-isopropyl-N-(3-methyl-1,1-dioxo-thietan-3-yl)pyrazolo[4,3-b]pyridine-6-carboxamide] was tested, and the IC50 was 0.9 nM.
`C[C@]1(NC(=O)c2cnc3c(-c4cncc(OC(F)F)c4)cn(C4CCOCC4)c3c2)CCS(=O)(=O)C1` [Example 80, (S)-3-(5-(difluoromethoxy)pyridin-3-yl)-N-(3-methyl-1,1-dioxidotetrahydrothiophen-3-yl)-1-(tetrahydro-2H-pyran-4-yl)-1H-pyrrolo[3,2-b]pyridine-6-carboxamide] gave an IC50 of 875 nM.
`CC(C)n1nc(-c2cccc(OC(F)F)c2)c2ncc(C(=O)NC3(C(C)O)CCOC3)cc21` (single isomer, unassigned) [Example 50d, 3-(3-(difluoromethoxy)phenyl)-N-(3-(1-hydroxyethyl)tetrahydrofuran-3-yl)-1-isopropyl-1H-pyrazolo[4,3-b]pyridine-6-carboxamide] showed an IC50 of 150 nM.
`CC(C)n1nc(-c2cncc(OC(F)(F)F)c2)c2ncc(C(=O)NC3(C)CS(=O)(=O)C3)cc21` [Example 114, 1-isopropyl-N-(3-methyl-1,1-dioxidothietan-3-yl)-3-(5-(trifluoromethoxy)pyridin-3-yl)-1H-pyrazolo[4,3-b]pyridine-6-carboxamide] was tested, and the IC50 was 20 nM.
`Cc1ncc(OC(F)F)cc1-c1nn(C(C)C)c2cc(C(=O)N[C@]3(C)CS(=O)(=O)C[C@H]3O)cnc12` [Example 56, 3-(5-(difluoromethoxy)-2-methylpyridin-3-yl)-N-((3S,4S)-4-hydroxy-3-methyl-1,1-dioxidotetrahydrothiophen-3-yl)-1-isopropyl-1H-pyrazolo[4,3-b]pyridine-6-carboxamide] gave an IC50 of 209 nM.
`Cn1nc(-c2cccc(OC(F)F)c2)c2ncc(C(=O)NC3(C)CS(=O)(=O)C3)cc21` [Example 26, 3-(3-(difluoromethoxy)phenyl)-1-methyl-N-(3-methyl-1,1-dioxidothietan-3-yl)-1H-pyrazolo[4,3-b]pyridine-6-carboxamide] gave an IC50 of 153 nM.
